Source: patent publication US20220273752A1, “MODULATION OF DENDRITIC CELL FUNCTION BY THE PHOSPHOLIPID MESSENGER LPA” (Cornell University, priority 2019, published 2022)

Columns and labels:
bone marrow-derived DCs = test: qPCR and Multiplex cytokine assays in BMDCs treated with LPA and Tunicamycin; assay type: cell-based, mouse
Description: FIG. 4A-4L graphically illustrate that induction of a set of highly tumorigenic and immunomodulatory genes is mainly PERK-dependent in LPA-exposed dendritic cells undergoing endoplasmic reticulum (ER) stress. Bone marrow-derived dendritic cells (BMDCs) from the indicated genotypes were left untreated or were incubated with LPA (100 μM), Tunicamycin (TM, 1 μg/ml) or with the combination of both for 6 hours. Gene expression was determined by qPCR. In all cases data, was normalized to endogenous Actb levels in each sample. These findings have further been confirmed using primary splenic dendritic cells and with an independent ER stressor, Thapsigargin (extensive data not shown). ***P<0.0005, ***P<0.0001. The serine/threonine-protein kinase/endoribonuclease inositol-requiring enzyme 1 α (IRE1α) in humans is encoded by the ERNI gene, and expression of the IRE1α protein is activated during endoplasmic reticulum (ER) stress. TM is a pharmacological ER stressor that causes protein glycosylation defects. FIG. 4A graphically illustrates expression of IL-1, in bone marrow-derived DCs from Ern1^f/f or Ern1^f/f Vav1-Cre (Ern1 knockout) mice with or without co-treatment by ER stressor Tunicamycin (TM) and/or physiological concentrations of LPA. […]

dendritic cells = test: Genome-wide transcriptional profiling of dendritic cells by RNA-seq; assay type: cell-based, murine; conditions: 100 μM LPA
Description: RNA was obtained from LPA-treated bone marrow-derived DCs (BMDCs) and RNA sequencing was performed. The RNA-sequencing data and Ingenuity Pathway Analyses (IPA) was performed on the RNA from LPA-treated bone marrow-derived DCs (BMDCs).

BMDCs, sDCs and pDCs = test: IFN-β ELISA in DCs stimulated with TLR agonists; assay type: cell-based, murine; conditions: Poly (I:C), LPS or CpG ODN1585, LPA 10 uM and 100 uM
Description: FIG. 12A-12D illustrate that LPA represses IFN-β production by diverse DC types. Splenic dendritic cells (sDCs), bone marrow dendritic cells (BMDCs) and plasmacytoid dendritic cells (pDCs) were stimulated with Poly (I:C) (a high molecular weight, synthetic analog of double-stranded RNA (dsRNA) that is a potent inducer of interferon), LPS (lipopolysaccharide) or CpG ODN1585 (a synthetic immunostimulatory oligonucleotide) in the presence or absence of LPA (10 uM and 100 uM). IFN-β protein expression levels were determined by ELISA. **P<0.001, ***P<0.0005, ****P<0.0001. FIG. 12A illustrates IFN-β protein expression in splenic DCs (sDCs) after treatment with LPA and/or Poly (I:C). FIG. 12B illustrates IFN-β protein expression in bone marrow dendritic cells (BMDCs) after treatment with LPA and/or Poly (I:C). FIG. 12C illustrates IFN-β protein expression in bone marrow dendritic cells (BMDCs) after treatment with LPS and/or LPA. FIG. 12D illustrates IFN-β protein expression in plasmacytoid DCs (pDCs) after treatment with ODN1585 and/or LPA.
These effects also occurred in diverse DC types such as BMDCs, splenic DCs (sDCs) and plasmacytoid DCs (pDCs) during stimulation through Toll-like Receptors (TLRs) or upon exposure to cancer cells treated with inhibitors of poly ADP-ribose polymerase (PARP) that induce DNA damage. […] The structure of Talazoparib is shown below.

[1] = test system: bone marrow-derived dendritic cells (BMDCs); test: Antigen presentation: OVA-pulsed BMDCs co-cultured with CFSE-labeled OT-II T cells; assay type: cell-based, murine; conditions: 100 μM LPA, 6 hours, then OVA 3 hours, OT-II T cell proliferation 3 days later
Description: FIG. 3A-3C illustrate that LPA inhibits the antigen-presenting capacity of dendritic cells. Bone marrow-derived dendritic cells (BMDCs) were exposed to 100 μM LPA for 6 hours and then pulsed with full-length ovalbumin (OVA) for 3 hours.
Cells were washed and co-cultured with OVA-specific OT-II T cells labeled with carboxyfluorescein succinimidyl ester (CFSE, which stains intracellular molecules, typically lysine residues). T cell proliferation was assessed by FACS 3 days later.
FIG. 3C graphically illustrates the division index of proliferating cells as determined by FlowJo analysis. ****P<0.0001.

lysophosphatidic acid [LPA]
production of IL-1b, IL-6, VEGF-a, LIF, M-CSF, GRO-a (IL-8) and MIP1-a (bone marrow-derived DCs; BMDCs co-treated with Tunicamycin (TM) and LPA (100 µM), Multiplex cytokine assays): significant PERK-dependent overproduction
expression of genes encoding IL-6, IL-1b, Arginase, Cox-2 and Vegf-A (bone marrow-derived DCs; ER-stressed DCs simultaneously exposed to LPA, qPCR): potent upregulation
number of genes demonstrating severe deregulation (dendritic cells): ~4,000 genes
IFN-β protein levels upon TLR agonist stimulation (BMDCs, sDCs and pDCs): decreased levels
antigen-presenting capacity of dendritic cells [1]: inhibits
